≈ marks a conversion by molar mass, not a printed value.
Experiments:
Conditions in all cases: 72 hours
human larynx (HeP.2) = test: MTT cytotoxicity assay, human larynx (HeP.2); type: cell-based
Experimental: (§1) After 72 hours, the assay was terminated and percent cyotoxicities calculated.

lymphoma cells (U937) = test: MTT cytotoxicity assay, lymphoma cells (U937); type: cell-based, human
Experimental: as §1

leukemia cells (MOLT-4) = test: MTT cytotoxicity assay, leukemia cells (MOLT-4); type: cell-based, human
Experimental: as §1

human prostate (DU145) = test: MTT cytotoxicity assay, human prostate (DU145); type: cell-based
Experimental: as §1

[1] = tested on: ovarian cancer cells (PA-1); test: MTT cytotoxicity assay, ovarian cancer cells (PA-1); type: cell-based, human
Experimental: as §1

human lung (L132) = test: MTT cytotoxicity assay, human lung (L132); type: cell-based
Experimental: as §1

human colon (HT29) = test: MTT cytotoxicity assay, human colon (HT29); type: cell-based
Experimental: as §1

Row | SMILES | ED50 Larynx Hep. 2 (human larynx (HeP.2)) | ED50 Lymphoma U937 (lymphoma cells (U937)) | ED50 Leukemia MOLT-4 (leukemia cells (MOLT-4)) | ED50 Prostate DU 145 (human prostate (DU145)) | ED50 Ovary PA-I [1] | ED50 Lung L 132 (human lung (L132)) | ED50 Colon HT-29 (human colon (HT29))
1 | CC(C)C1CCC2(C(=O)OC3CCC4(C)C(CCC5(C)C4CCC4C6C(C(C)C)CCC6(C(=O)O)CCC45C)C3(C)C)CCC3(C)C(CCC4C5(C)CC(Br)C(=O)C(C)(C)C5CCC43C)C12 (centres unmarked) [Derivative 1161] | 1.4 µg/mL (≈ 1.43 µM) | 0.3 µg/mL (≈ 0.307 µM) | 0.34 µg/mL (≈ 0.348 µM) | 0.4 µg/mL (≈ 0.41 µM) | 1.2 µg/mL (≈ 1.23 µM) | 3.5 µg/mL (≈ 3.58 µM) | 3.5 µg/mL (≈ 3.58 µM)
2 | CC(C)C1CCC2(C(=O)OC(=O)C34CCC(C(C)C)C3C3CCC5C6(C)CC(Br)C(=O)C(C)(C)C6CCC5(C)C3(C)CC4)CCC3(C)C(CCC4C5(C)CC(Br)C(=O)C(C)(C)C5CCC43C)C12 (centres unmarked) [Derivative 1163] | 5.0 µg/mL (≈ 4.75 µM) | 3.8 µg/mL (≈ 3.61 µM) | 1.6 µg/mL (≈ 1.52 µM) | 6.0 µg/mL (≈ 5.7 µM) | >4.0 µg/mL | 6.5 µg/mL (≈ 6.17 µM) | 7.3 µg/mL (≈ 6.93 µM)
